Assay results published in patent US20090275753A1, “ORTHO-SUBSTITUTED ANILINE DERIVATIVE AND ANTIOXIDANT DRUG” (NIPPON SODA CO., LTD., priority 2005, published 2009).
pIC50: −log10 of the molar value.

Key:
[1] = Test for evaluating oral absorption: serum concentration by HPLC; assay type: in vivo, rat; settings: SD male rats, oral 30 mg/kg, one hour after administration
Experimental: (Test for Evaluating Oral Absorption)
The absorption of the compound of the present invention upon oral administration was evaluated in rats.
The compound of the present invention was dissolved in DMSO (final concentration: 20%), and then dissolved or suspended in a 0.1N hydrochloric acid physiological saline solution or a 1% polyethylene hardened castor oil (NIKOL HCO-60, manufactured by Nikko Chemicals Co., Ltd.).
This solution was administered orally, at a dose of 30 mg/kg, to a group of three SD male rats (Japan SLC, 6 weeks old). One hour after administration and following anesthetization, blood was collected from the abdominal vena cava in a plastic blood collection tube containing a serum separating agent. The blood sample was left to stand for approximately one hour, and following clotting, the serum was obtained by conducting a centrifugal separation at 3,000 rpm for a period of 10 minutes. […] The quantity of the compound of the present invention that existed within this filtered solution was measured by high-performance liquid chromatography (HPLC), under the conditions shown below. […]
The filtered solution for HPLC described in the previous paragraph was measured using the following representative conditions. […]

[2] = test system: lipid peroxidation in retina homogenate; test: Test for evaluating tissue distribution: ex vivo inhibition of lipid peroxidation, retina; assay type: in vivo, rat; settings: SD male rats, oral administration, one hour after administration, with feeding
Experimental: (§1) (Test for Evaluating Tissue Distribution)
(§2) The tissue distribution properties of the compound of the present invention were evaluated by measuring the ex vivo inhibition of lipid peroxidation.
(§3) The compound of the present invention was dissolved in DMSO (final concentration: 20%), and then dissolved or suspended in a 0.1N hydrochloric acid physiological saline solution or a 1% polyethylene hardened castor oil (NIKOL HCO-60, manufactured by Nikko Chemicals Co., Ltd.)
This solution was administered orally, at a dose of 30 mg/kg, to either a group of three SD male rats (Japan SLC, 6 weeks old) that had been feed-deprived for 24 hours, or a group of three SD male rats (Japan SLC, 6 weeks old) that had not been feed-deprived. One hour after administration and following anesthetization, the brains and eyeballs were removed. Using the method disclosed above in the section relating to the “test for evaluating in vitro inhibition of lipid peroxidation”, the brains, and the retinas separated from the eyeballs were homogenized, and the quantity of lipid peroxide within each tissue homogenate was then measured.
(§4) The inhibition rate of the compound of the present invention within each of the tissues was determined from the quantities of lipid peroxide generated in a control group (20% DMSO-0.1N hydrochloric acid physiological saline solution/1% polyethylene hardened castor oil) and in the group administered with the compound of the present invention.

[3] = test system: lipid peroxidation in pig retina homogenate; test: Test for evaluating in vitro inhibition of lipid peroxidation (thiobarbituric acid method); assay type: biochemical; settings: 500 μM cysteine and 5 μM FeSO4, 30 minutes at 37° C., malondialdehyde, read-out: in vitro inhibition of lipid peroxidation (50% inhibition concentration IC50)
Experimental: (Test for Evaluating in vitro Inhibition of Lipid Peroxidation)
Evaluation of the in vitro inhibition of lipid peroxidation of the compound of the present invention was conducted in accordance with the method disclosed by Malvy et al. (Malvy, C., et al., Biochemical and Biophysical Research Communications, 1980, vol. 95, pp. 734 to 737).
As the organ, retinas that had been separated from pig eyeballs and subsequently stored at −80° C. were used. At the time of use, a 5-fold excess of a phosphate-buffered physiological saline solution (pH 7.4) was added, and the mixture was homogenized using a microhomogenizer (PHYSCOTRON, NITI-ON).
To this pig retina homogenate were added 0.15M KCl, the compound of the present invention, 500 μM cysteine and 5 μM FeSO4, and the mixture was then incubated for 30 minutes at 37° C.
The malondialdehyde generated upon decomposition of the lipid peroxide was measured using the thiobarbituric acid method. Based on the measured values, the 50% inhibition concentration (hereafter also referred to as “IC50”) of the compound of the present invention was determined.

[4] = test system: lipid peroxidation in brain homogenate; test: Test for evaluating tissue distribution: ex vivo inhibition of lipid peroxidation, brain; assay type: in vivo, rat; settings: SD male rats, oral 30 mg/kg, one hour after administration, fasting
Experimental: as §1, §2, §3
This solution was administered orally, at a dose of 30 mg/kg, to either a group of three SD male rats (Japan SLC, 6 weeks old) that had been feed-deprived for 24 hours, or a group of three SD male rats (Japan SLC, 6 weeks old) that had not been feed-deprived. […] Using the method disclosed above in the section relating to the “test for evaluating in vitro inhibition of lipid peroxidation”, the brains, and the retinas separated from the eyeballs were homogenized, and the quantity of lipid peroxide within each tissue homogenate was then measured.
as §4

Row | SMILES | concentration at 1 h ([1]; rat, serum) [nM] | ex vivo inhibition of lipid peroxidation 50% inhibition quantity (ID50) Retina [2] | serum concentration [1] | pIC50 [3] | ex vivo inhibition of lipid peroxidation inhibition rate (%) Brain [4]
1 | Cc1c(C)c2c(c(CNc3ccc(-c4ccn[nH]4)cc3)c1N)CC(C)(C)O2 [Compound 29, 5-(4-(5-amino-2,2,6,7-tetramethyldihydrobenzofuran-4-ylmethylamino)phenyl)pyrazole] | 2400 | 60 (with feeding) mg/kg | – | – | –
2 | Cc1c(C)c2c(c(CN)c1N)CC(C)(C)O2 [Compound R-1, reference compound] | – | 72 (with feeding) mg/kg | Below detection limit | 6.52 | –
3 | Cc1c(C)c2c(c(CCc3ccccc3)c1N)CC(C)(C)O2 [Compound 83, 2,2,6,7-tetramethyl-4-phenylethyl-5-aminodihydrobenzofuran] | – | 67 (with feeding) mg/kg | – | 6.59 | 96 (fasting) %
